The source of these data is article PMC8840689, “Bacillus cereus Toxin Repertoire: Diversity of (Iso)cereulide(s)” (Molecules, 2022).

Data set [1] is described as follows: UPLC retention on RP-BEH-C18 column (analyte hydrophobicity). Type of data set: physicochemical. The settings on record: for RT (retention time on RP-BEH-C18 UPLC column): chromatographic, BEH-C18 2.1 × 150 mm, 1.7 µm, 0.4 mL/min, 45 °C, A aqueous HCOOH (0.1%), B MeCN with HCOOH (0.1%), 93% B to 100% B in 4 min, ESI-TOF-MS, uncalibrated, link to hydrophobicity only implicit. The protocol:
Purification of cereulide (1) and isocereulides H–N (2–8): The purification of 1–8 from the reduced ethanol extract was performed according to the literature. In brief, the extract was diluted with H2O (1:10) for better retention of the target analytes on the column material and pre-fractionated via C18 SPE cartridges (60 mL, 10 g; Chromabond, Macherey-Nagel, Düren, Germany). All obtained methanolic fractions were combined and the solvent was reduced to approx. 150 mL using a rotary evaporator and stored at −20 °C until further use for compound isolation. The sample material was separated via semi-preparative HPLC into 10 fractions (Supplementary Materials, Figure S1), for which the respective eluates were combined and their solvents removed through a rotary evaporator. The obtained HPLC fractions were screened for cereulide (1) and its isocereulides using a UPLC-TOF-MS system Synapt G2-S (Waters, Manchester, UK) in the positive electrospray mode equipped with a 2.1 × 150 mm, 1.7 µm BEH-C18 column (Waters, Manchester, UK) at a flow rate of 0.4 mL/min at 45 °C using aqueous HCOOH (0.1%) as solvent A and MeCN with HCOOH (0.1%) as solvent B. Elution was performed by starting at 93% B, increasing to 100% B in 4 min, holding at 100% B for 2 min, followed by decreasing to 93% in 0.1 min and holding at 93% B for 0.9 min.

For data set [2], the system named is HEp-2 cells. The data set is classed as cell-based. The text has this:
(§1) Determination of EC50 of cereulide (1) and isocereulides H–N (2–8) via HEp-2 cell assay. The testing principle of the HEp-2 cell assay is based on the uncoupling of ATP synthesis, effectuated by supplemented ionophores, resulting in a facilitated ion influx into the mitochondria, thus disrupting the membrane potential. As a result, the 50% effective concentration (EC50) gives the amount of toxin required to inactivate half of the viable cells.
HEp-2 cell assay: The cytotoxic activity of 1–8 was determined by quantifying their EC50 using HEp-2 cells, as described previously. In a 96-well microtiter plate assay, a 2% ethanolic minimum essential medium (MEM-Earle’s), containing 2% FCS, 1% sodium pyruvate and 0.4% penicillin-streptomycin (v/v each), was provided to perform stepwise dilution of each toxin solution. As an overall toxicity reference and cell control, the structurally related toxin valinomycin was used analogously, in a range of approx. 2–500 ng/mL. The composition of each toxin sample is listed in the Supplementary Materials, Table S2. The HEp-2 cells were freed from their medium and washed with 5 mL of PBS twice and 5 mL of 0.05% Trypsin/EDTA solution was added. After incubation (8 min, 37 °C, 5% CO2), 10 mL of MEM was added and the cells were resuspended, transferred to a falcon tube and centrifuged (RT, 7 min, 700 rpm). The supernatant was discarded, the cell pellet was suspended in 5 mL of MEM and the cell count was determined via Trypan blue. Finally, the cell count was set to 6.7 × 10^5 cells/mL MEM (1 × 10^5 cells/well); a total of 150 µL of this solution was spiked to each well and the plate was incubated (48 h, 37 °C, 5% CO2). After removing 100 µL of the medium, 10 µL of the cell proliferation reagent WST (cell counting kit) was added and shaken for 1 min (400 rpm) and the plate was incubated (20 min, 37 °C, 5% CO2). To determine cell viability, the extinction at 450 nm/620 nm (TECAN infinite F200) was measured. The respective EC50 values for each sample were then calculated from the obtained dose-response curves and the corresponding applied sample dilution and concentration.
An aliquot of 2 µL of the respective samples with ^13C6-cereulide as an internal standard (100 ng/mL) was applied for the quantitation of 1–8 in the samples, later applied in the HEp-2 cell assay according to the literature, performed on a Waters Xevo TQ-S mass spectrometer (Waters) coupled to an Acquity UPLC i-class core system (Waters) with a binary solvent manager, sample manager and column oven. The system was operated with MassLynx 4.1 SCN 813 Software (Waters) and data processing and analysis were performed with TargetLynx (Waters). The recently reported quantitation method for cereulide and isocereulides A-G [33] was extended by implementing the ammonium adducts of 2–8 using the multiple reaction monitoring mode with the following parameters. Compounds 2, 3 and 7 m/z 1156.6 → qualifier m/z 172.2, 314.2; quantifier m/z 357.2. Compound 4 m/z 1142.6 → qualifier m/z 172.2, 314.2; quantifier m/z 357.2. Compound 5 m/z 1184.6 → qualifier m/z 172.2, 314.2; quantifier m/z 357.2. Compounds 6 and 8 m/z 1186.6 → qualifier m/z 172.2, 314.2; quantifier m/z 357.2. The calibration for the quantitation of the analytes consisted of mixtures of cereulide (0.1–1000 ng/mL in EtOH) and ^13C6-cereulide (100 ng/mL) as an internal standard. Mixtures were prepared from stock solutions and analyzed in triplicate by UPLC-MS/MS. The calibration curve was obtained by plotting the peak area ratios of analytes to internal standard against the concentration ratios of analyte to internal standard for each solution and applying linear regression (origin excluded) to give the equation y=2.5174x+0.0061 with R^2=0.9998 . For 1 and ^13C6-cereulide, the quantifier mass transitions were selected as m/z 1170.7 → m/z 357.2 and m/z 1176.7 → m/z 358.2, respectively. All mass spectrometric and chromatographic parameters were used as reported.

The conditions of data set [3]: cited from earlier work.
Excerpt: as §1

For data set [4] the following is noted: cited from earlier work. The text has this: . Cereulide (1) is composed of 12 alternatingly placed α-amino and α-hydroxy acids thought to form the three-time circularly repeating tetradepsipeptide unit D-O-Leu-D-Ala-L-O-Val-L-Val (Figure 1), leading to its characteristic dodecadepsipeptide structure in a rectangular cylindrical shape. Because of its uniqu ...
The source holds these as a separate data set.

The test system of the next data set is blood–brain barrier. As to conditions: porcine model; cited from earlier work. An excerpt: (§2) Similar to the antibiotic valinomycin, cereulide unfolds its toxicity potential due to a high affinity for complex formation with alkali metal ions (Li^+, Na^+ and K^+) and ammonium ions, resulting in its biological function as a strong K^+ ionophore and as a K^+ transporter, resulting in cell membrane depolarization.

A further data set relates to 5–HT3 receptors. The settings on record: lower concentrations; stimulation of the vagus afferent by binding to 5–HT3 receptors in the duodenum; cited from earlier work.
Excerpt: as §2

Data set [5] concerns HEp-2 cells. The settings on record: cited from earlier work. An excerpt:
At this point, we can only speculate about the magnitude of the impact that isocereulides have on the overall toxicity of (iso)cereulide-containing B. cereus cell cultures.

Consider isocereulide F, for which the “RT (retention time on RP-BEH-C18 UPLC column)” value (shortened to “RT”) in data set [1] stood at 5.00 min.
As to isocereulide K, in data set [1], the “hydrophobicity compared with 1 (in words)” value is “more hydrophobic than 1” and the “RT” value amounted to 4.59 min. The “cytotoxicity compared to 1” value in the data set with HEp-2 cells [2] (HEp-2 cells, 48 h) is 69%.
As to `CC(C)C[C@H]1OC(=O)[C@H](C(C)C)NC(=O)[C@H](C(C)C)OC(=O)[C@@H](C)NC(=O)[C@@H](CC(C)C)OC(=O)[C@H](C(C)C)NC(=O)[C@H](C(C)C)OC(=O)[C@@H](C)NC(=O)[C@@H](CC(C)C)OC(=O)[C@H](C(C)C)NC(=O)[C@H](C(C)C)OC(=O)[C@@H](C)NC1=O` [Cereulide, cereulide], the “increased toxicity compared to valinomycin” value in data set [3] is “approx. 15 fold”. Also, the “stability to temperatures, pH values and enzymes” value in data set [4] was “inert to a wide range of temperatures, pH values and enzymes”. Moreover, the “RT” value in data set [1] was found to be 4.25 min. In addition, the “crossing of the blood–brain barrier” value with blood–brain barrier is “can cross the blood–brain barrier”. Further, in the data set on 5–HT3 receptors, the emetic effect result is reported as “provoke vomiting”. In the data set on HEp-2 cells [2] (48 h), the “absolute EC50” value was 2.44 ng/mL. The “toxic effect relative to valinomycin at an equally applied concentration” value in the data set with HEp-2 cells [2] (HEp-2 cells, from EC50 values, data not shown) was determined as 13.7 times.
Regarding isocereulide C, the “RT” value in data set [1] came out at 2.52 min.
With isocereulide B, the “RT” value in data set [1] is recorded as 3.83 min.
Still for that read-out and setting: for isocereulide E the value was 3.83 min.
With isocereulide A, the “higher toxicity than cereulide” value in the data set on HEp-2 cells [5] is given as “approximately 8 fold”. The “RT” value in data set [1] is 4.83 min.
As to isocereulide L, the “RT” value in data set [1] was found to be 2.76 min.
Consider “D-O-Leu-D-Ala-L-O-Val-L-Val-D-O-Leu-Gly-L-O-Val-L-Val-D-O-Ile-D-Ala-L-O-Val-L-Val (lariat or depsi) [Isocereulide M, isocereulide M, cereulide variant, D-Ala by Gly and D-O-Leu by D-O-Ile]”, for which the “RT” value in data set [1] turned out to be 3.07 min.
In the case of `CC(C)C[C@H]1OC(=O)[C@H](C(C)C)NC(=O)[C@H](C(C)C)OC(=O)CNC(=O)[C@@H](CC(C)C)OC(=O)[C@H](C(C)C)NC(=O)[C@H](C(C)C)OC(=O)[C@@H](C)NC(=O)[C@@H](CC(C)C)OC(=O)[C@H](C(C)C)NC(=O)[C@H](C(C)C)OC(=O)[C@@H](C)NC1=O` [Isocereulide H, isocereulide H], the “RT” value in data set [1] is on record as 2.88 min. Besides, the “absolute EC50” value in the data set on HEp-2 cells [2] (48 h) was 6.62 ng/mL. Further, the “decreased toxicity effect on HEp-2 cells compared to 1” value in the data set with HEp-2 cells [2] (HEp-2 cells, 48 h) was 63%.
Regarding isocereulide N, the “RT” value in data set [1] is 2.76 min.
Regarding isocereulide D, the “RT” value in data set [1] was 2.88 min.
For the molecule isocereulide J, the “RT” value in data set [1] is recorded as 3.57 min.
Same read-out and setting: for isocereulide G the value was 4.56 min.
For `CC[C@@H]1NC(=O)[C@H](C(C)C)OC(=O)[C@@H](C)NC(=O)[C@@H](CC(C)C)OC(=O)[C@H](C(C)C)NC(=O)[C@H](C(C)C)OC(=O)[C@@H](C)NC(=O)[C@@H](CC(C)C)OC(=O)[C@H](C(C)C)NC(=O)[C@H](C(C)C)OC(=O)[C@@H](C)NC(=O)[C@@H](CC(C)C)OC1=O` [Isocereulide I, isocereulide I], in data set [1], the “hydrophobicity compared with 1 (in words)” value was “slightly more hdrophilic” and the “RT” value is on record as 3.40 min. For the same molecule, the “absolute EC50” value with HEp-2 cells [2] (48 h) is reported as 1.75 ng/mL. In addition, in the data set with HEp-2 cells [2] (HEp-2 cells, 48 h), the “toxicity relative to cereulide (1) (reciprocal EC50, cereulide set to 1)” value was 1.4 fold.
